Measurements taken from patent publication US11259516B2, “Method and apparatus for capsular delivery to plants” (priority 2017, dated 2022).

What was measured:
[1] = system: Ligustrum sinense (Chinese privet); parameters: key: X indicates that the given herbicide is suitable for controlling the given weed; conditions: cited from earlier work
[2] = system: Olea europea sbsp africana (African olive); parameters: key: X indicates that the given herbicide is suitable for controlling the given weed; conditions: cited from earlier work
[3] = system: Lantana camara (Lantana); parameters: key: X indicates that the given herbicide is suitable for controlling the given weed; conditions: cited from earlier work
[4] = system: Populus spp (Poplars); parameters: key: X indicates that the given herbicide is suitable for controlling the given weed; conditions: cited from earlier work
[5] = system: Schefflera actinophyla (Umbrella tree); parameters: key: X indicates that the given herbicide is suitable for controlling the given weed; conditions: cited from earlier work
[6] = system: Acacia spp (Wattles); parameters: key: X indicates that the given herbicide is suitable for controlling the given weed; conditions: cited from earlier work
[7] = system: Rubus anglocandicans (Blackberry); parameters: key: X indicates that the given herbicide is suitable for controlling the given weed; conditions: cited from earlier work
[8] = system: Eucalyptus dunnii (Dunn's White Gum); assay: Case 3: dose rate effect of Di-Bak G on Eucalyptus dunnii, field trial; format: in vivo; conditions: for mortality: single capsule per tree
Procedure: (§1) Generally, one capsule was inserted per 10 cm stem circumference.
(§2) Tree health was assessed on a 0-4 scale, 0 being dead and 4 being healthy. Observations were made for evidence of ‘flashback’ in nearby untreated trees.
In this trial, one, two or three capsules of glyphosate were inserted into Eucalyptus dunnii trees irrespective of their circumference. The trial was established on Brooklyn station, Upper Tooloom, near Urbenville on 26 May 2017. GPS co-ordinates were S28° 32.488′ E152° 24.778′. The trees were arranged in a similar manner, and similar in age and size, to the E. saligna trees described in Case 2. Desirable trees were marked and the other trees were treated.
This trial consisted of one replicate of 15 trees for each treatment. […] Tree health was assessed at 4 months (25 Aug. 2017) and 7 months (20 Dec. 2017). […] At the 4 month assessment, samples were collected for observation of dissolution of capsule and herbicide. Rainfall data for the closest recording station (Urbenville) was taken from the Bureau of Meteorology (BOM) internet site. No recent temperature data records were available for this site.

[9] = system: Leptospermum spp. (Tea trees); parameters: key: X indicates that the given herbicide is suitable for controlling the given weed; conditions: cited from earlier work
[10] = system: Psidium cattleianum (Cherry guava); parameters: key: X indicates that the given herbicide is suitable for controlling the given weed; conditions: cited from earlier work
[11] = system: Eucalyptus saligna (Sydney Blue Gum); assay: Case 2: thinning of plantation grown Eucalyptus saligna with Di-Bak G, field trial; format: in vivo; conditions: at four months, on average a capsule every 13-14 cm of stem circumference
Procedure: as §1, §2
A trial was established on Brooklyn Station, Upper Tooloom, near Urbenville on 25 May 2017. GPS co-ordinates of the first treated plot were S28° 32.486′ E152° 24.782′. […] Trees were 6-10 m tall. Desirable trees were marked and the other trees were treated.
The trial consisted of four replicates with 15 trees per replicate. The number of capsules applied to each tree was dependent on tree circumference which was measured at chest height. The tree circumferences range was from 18 to 57 cm. Tree health was assessed at 4 months (25 Aug. 2017) and 7 months (20 Dec. 2017). Samples were collected for observation of dissolution of capsule and herbicide. Rainfall data for the closest recording station (Urbenville) was taken from the Bureau of Meteorology (BOM) internet site. No recent temperature data records were available for this site.

[12] = system: Crataegus sinaica (Azarola); parameters: key: X indicates that the given herbicide is suitable for controlling the given weed; conditions: cited from earlier work
[13] = system: Cascabela thevetia (Yellow oleander); parameters: key: X indicates that the given herbicide is suitable for controlling the given weed; conditions: cited from earlier work
[14] = system: western white gum (Eucalyptus argophloia); assay: Example 2: glyphosate and hexazinone capsules, thinning trial in western white gum plantation; conditions: Eucalyptus argophloia
Procedure: The trial for this example was established at the HQP plantation near Jandowae on 6 Feb. 2018. The trees were planted in rows 4 m apart at 1.5 m spacing. Trees were 6-10 m tall. Trees to be maintained were marked and the other trees were treated.
Four treatments were used, with capsules as follows:
The capsules used were HPMC Size 0 Natural TR.V700 colour cap and body Vcaps (Suzhou Capsugel® Ltd, China). Capsules were hand packed using a Capsugel Profiller apparatus (https://www.capsugel.com/biopharmaceutical-products/profiller). An embodiment of apparatus 10 adapted to include handle 2201 (FIG. 17) was used to drill a hole into the stem, insert the herbicide capsule and seal with a wooden plug.
Herbicide capsules were applied to approximately 10 trees for each of the treatments. The number of capsules applied to each tree was independent of tree circumference which was measured at chest height. The tree circumferences range was from 20 to 34 centimetres. At 4 weeks, a small sample of trees were cut down with a chainsaw and cross-sections of stems containing the sites of insertion of the herbicide capsules removed. These stem pieces were returned to the laboratory and split open longitudinally through the insertion point. Tree health was assessed at 11 weeks (24 Apr. 2018) on a 0-4 scale with 0 being dead and 4 being healthy. Observations were made for evidence of flashback in untreated trees.

[15] = system: Ricinus communis (Castor oil plant); parameters: key: X indicates that the given herbicide is suitable for controlling the given weed; conditions: in vivo; cited from earlier work
[16] = system: Miconia calvescens (Velvet tree); parameters: key: X indicates that the given herbicide is suitable for controlling the given weed; conditions: cited from earlier work
[17] = system: Mimosa pigra (Mimosa); parameters: key: X indicates that the given herbicide is suitable for controlling the given weed; conditions: cited from earlier work
[18] = system: Salix species (Willows); parameters: key: X indicates that the given herbicide is suitable for controlling the given weed; conditions: cited from earlier work
[19] = system: Ligustrum lucidum (Broad leaf privet); parameters: key: X indicates that the given herbicide is suitable for controlling the given weed; conditions: cited from earlier work
[20] = system: Lycium ferocissium (African boxthom); parameters: key: X indicates that the given herbicide is suitable for controlling the given weed; conditions: cited from earlier work
[21] = system: Erythrina sykesii (Coral tree); parameters: key: X indicates that the given herbicide is suitable for controlling the given weed; conditions: cited from earlier work

For `O=C(O)CNCP(=O)(O)O` [Glyphosate], the “suitability of herbicide for control of weed” value (“suitability of herbicide” for short) [1] is listed as “X”, the “suitability of herbicide” value [2] is listed as “X” and the “suitability of herbicide” value [3] is listed as “X”. For the same compound, the “suitability of herbicide” value [4] was “X”, the “suitability of herbicide” value [5] was “X” and the “suitability of herbicide” value [6] was “X”. The “suitability of herbicide” value [7] was “X”, the trees dead ([8]; 2 capsules per tree, at 4 months) was ~90% and the treated trees killed ([8]; 2 capsules per tree, by 7 months) was “all had been killed”. For the same compound, the treated trees killed ([8]; 3 capsules per tree, by 4 months) was “killed all treated trees”, the mortality ([8]; at 4 months) was ~70% and the mortality ([8]; by 7 months) was ~80%. The “suitability of herbicide” value [9] was “X”, the “suitability of herbicide” value [10] was “X” and the mortality [11] was “over 90%”. The “suitability of herbicide” value [12] was “X”, the “suitability of herbicide” value [13] was “X” and the “flashback in the trees marked for retention” value ([14]; 11 week assessment) was “no flashback was observed”. For the same compound, the “trees died / killed (health rating 0-4 scale, 0 dead)” value ([14]; 11 weeks post treatment, 1 or 2 capsules per tree) was “majority of trees”, the “suitability of herbicide” value [15] was “X” and the “suitability of herbicide” value [16] was “X”. The “suitability of herbicide” value [17] was “X”, the “suitability of herbicide” value [18] was “X” and the “suitability of herbicide” value [19] was “X”. The “suitability of herbicide” value [20] was “X” and the “suitability of herbicide” value [21] was “X”.
